From patent EP0255028A2 (priority 1986, dated 1988)
Like-named read-outs stand apart in the source and are kept apart here.

Legend:
[1] = tested on: durch PAF induzierte Aggregation von Humanthrambozyten; test: Inhibition of PAF-induced platelet aggregation in vitro (Born and Cross method); type: cell-based; details: Homo sapiens
Text: 1. In vitro Untersuchun^qen: Hemmung der Blutplättchen-Aqqreqation
Zur Bestimmung der PAF-antagonistischen Wirkung von Substanzen wurde die durch PAF induzierte Aggregation von Humanthrambozyten in vitro verwendet. Zur Gewinnung von thrombozytenreichem Plasma (TRP) erfolgt die Blutentnahme aus einer nicht gestauten Vene mit Hilfe einer Plastikspritze, in der sich 3,8 %ige Natriumcitratlösung befindet. Das Verhältnis zwischen Natriumcitratlösung und Blut beträgt 1:9. Nach vorsichtiger Durchmischung wird das Citratblut bei 150 x g (1200 U/min) 20 Minuten lang zentrifugiert. Die Messung der Thrombozytenaggregation erfolgt nach dem von Born und Cross ausgearbeiteten Verfahren (G. V. R. Born und M.J. Cross, J. Physiol. 168, 178 (1963)), wobei dem TRP unter ständigem Rühren PAF als Auslöser der Aggregation zugesetzt wird.
Die Prüfsubstanz wird jeweils 2 - 3 Minuten vor Auslösung der Aggregation in einem Volumen von 10 µl zugesetzt. Als Lösungsmittel dienen entweder Aqua.dest., Ethanol und/oder Dimethylsulgoxyd. Kontrollansätze erhalten entsprechende Volumina dieser Lösungsmittel. Nach Registrierung der Ausgangsabsorption (2-3 Minuten) wird die Aggregation mit PAF (5 x 10^-8M) induziert.
Zur Beurteilung von Substanzeffekten wird das Maximum der ersten Aggregationswelle verwendet. Die durch PAF induzierte maximale Absorptionsrate maximale Aggregation x 100 %) wird jeweils gleichzeitig in einem Parallelansatz (= Kontrollansatz in einem der Kanäle des 2 Kanal-Aggregometers) zu jedem Testansatz (zweiter Kanal) mitgeprüft und als 100 %-Wert verwendet.
Der unter dem Einfluß der Testsubstanz erreichte Aggregationswert wird als 100 % angegeben.
Jede Prüfsubstanz wird bei Konzentrationen von 10^-3 bis 10^-8M mit einem Stichprobenumfang von jeweils n= 4 hinsichtlich einer hemmenden Wirkung auf die durch PAF induzierte Thrombozytenaggregation untersucht. Danach wird eine Konzentrations-Wirkungskurve anhand von 3 Konzentrationen erstellt und die IK50 (Konzentration bei einer 50%igen Aggregationsheinmung) ermittelt. Die IK-Werte von Verbindungen der allgemeinen Formel I bewegen sich im allgemeinen um Werte, die kleiner als 9 µM sind.

[2] = biological target: Flunitrazopam-Bindungstest; test: Flunitrazepam binding test (FNB); details: read-out: IK50-Wert FNB
[3] = read-out: IK50 (Konzentration bei einer 50%igen Aggregationshemmung)

Q: With Cc1cnc2n1-c1ccc(OCCCN3CCOCC3)cc1C(c1ccccc1)=NC2 [(l)] as the compound, how does the IC50 ([1]; read-out: IK50-Wert PAF) read?
A: The IC50 was 100 nM.

Q: What about the IC50 [2] of the same compound?
A: Its IC50 is > 5000 nM.

Q: With Cc1nnc2n1-c1ccc(OCCN3C(=O)c4ccccc4C3=O)cc1C(c1ccccc1Cl)=NC2 [(e)] as the compound, how does the IC50 ([1]; read-out: IK50-Wert PAF) read?
A: Its IC50 is 300 nM.

Q: With Cc1nnc2n1-c1ccc(C(=O)OCCCN(C)C)cc1C(c1ccccc1Cl)=NC2 [(h)] as the compound, how does the IC50 ([1]; read-out: IK50-Wert PAF) read?
A: Its IC50 is 1200 nM.

Q: Which IC50 ([1]; read-out: IK50-Wert PAF) does the source give for Cc1nnc2n1-c1ccc(C(=O)NCCN3CCOCC3)cc1C(c1ccccc1Cl)=NC2 [(g)] here?
A: The IC50 was 900 nM.

Q: And the IC50 [2]?
A: The IC50 was > 5000 nM.

Q: Which results are given for Cc1nnc2n1-c1ccc(OCC(=O)NCC(C)C)cc1C(c1ccccc1Cl)=NC2 [(b)]?
A: IC50 ([1]; read-out: IK50-Wert PAF): 400 nM; IC50 [2]: 40 nM

Q: Which IC50 ([1]; read-out: IK50-Wert PAF) does the source give for Cc1nnc2n1-c1ccc(OCC(=O)NC3CCN(C)CC3)cc1C(c1ccccc1Cl)=NC2 [(c)] here?
A: Its IC50 is 800 nM.

Q: What about the IC50 [2] of the same compound?
A: Its IC50 is 2160 nM.

Q: What does the source list for CCOC(=O)CCCOc1ccc2c(c1)C(c1ccccc1Cl)=NCc1nnc(C)n1-2 [(a), 8-(3-Ethoxycarbonyl-propyloxy)-1-Methyl-6-(2-chlorphenyl)-4H-(1,2,4]triazolo(4,3-a][1,4]benzodiazepin]?
A: IC50 ([1]; read-out: IK50-Wert PAF): 1300 nM; IC50 [2]: 570 nM

Q: Cc1nnc2n1-c1ccc(OCc3cccnc3)cc1C(c1ccccc1)=NC2 [(k)] was tested. Which IC50 ([1]; read-out: IK50-Wert PAF) did it give?
A: The IC50 was 200 nM.

Q: What about the IC50 [2] of the same compound?
A: Its IC50 is 1420 nM.

Q: What does the source list for Cc1nnc2n1-c1ccc(Cl)cc1C(c1ccccc1Cl)=NC2 [Triazolam, reference compound]?
A: IC50 [1, 3]: 9000 nM; IC50 ([1]; read-out: IK50-Wert PAF): 9000 nM; IC50 [2]: 1.4 nM

Q: With Cc1cnc2n1-c1ccc(OCc3cccnc3)cc1C(c1ccccc1)=NC2 (atropisomer, axis not shown) [(m)] as the compound, how does the IC50 ([1]; read-out: IK50-Wert PAF) read?
A: Its IC50 is 100 nM.

Q: With Cc1nnc2n1-c1ccc(OCCCN3CCOCC3)cc1C(c1ccccc1)=NC2 [(j)] as the compound, how does the IC50 ([1]; read-out: IK50-Wert PAF) read?
A: Its IC50 is 100 nM.

Q: What about the IC50 [2] of the same compound?
A: The IC50 was > 5000 nM.

Q: With Cc1nnc2n1-c1ccc(OCCN3CCOCC3)cc1C(c1ccccc1Cl)=NC2 [(d)] as the compound, how does the IC50 ([1]; read-out: IK50-Wert PAF) read?
A: The IC50 was 300 nM.

Q: What about the IC50 [2] of the same compound?
A: The IC50 was 2680 nM.

Q: What does the source list for Cc1nnc2n1-c1ccc(Cl)cc1C(c1ccccc1)=NC2 [Alprazolam, reference compound]?
A: IC50 [1, 3]: 14000 nM; IC50 ([1]; read-out: IK50-Wert PAF): 14000 nM; IC50 [2]: 5.5 nM

Q: Cc1nnc2n1-c1ccc(C3=NC(C)(C)CO3)cc1C(c1ccccc1Cl)=NC2 [(f)] was tested. Which IC50 ([1]; read-out: IK50-Wert PAF) did it give?
A: Its IC50 is 400 nM.

Q: And the IC50 [2]?
A: Its IC50 is 800 nM.

Q: Which IC50 ([1]; read-out: IK50-Wert PAF) does the source give for Cc1nnc2n1-c1ccc(OCCN3CCOCC3)cc1C(c1ccccc1Cl)NC2 (centres unmarked) [(i)] here?
A: Its IC50 is 400 nM.

Q: What about the IC50 [2] of the same compound?
A: Its IC50 is 4550 nM.
